The test system of assay [1] is ^14 C-acetate uptake into dermal lipids. In words: in vivo topical treatment of rats, ^14 C-acetate uptake into dermal lipids. Further details: species or system rat. As to the method: (§1) Ten, 3 week male weanling rats, clipped on left and right flanks, were divided into two groups of five animals. One group was untreated on the left flank while the right flank received the test solution (1 mg/ml biotin sulphone in 70% ethanol:30% water) twice a day (once per day at weekends) for six weeks. The second group received the ethanol/water carrier on the left flank and the test solution on the right. At the end of the treatment the rats were killed, skin removed and divided approximately into epidermis and dermis using a 0.2 mm keratatome cut. Samples of dermis containing most of the sebaceous tissue from either untreated (UN), vehicle (V) or test (T) treated skin were incubated in a nutrient medium (basal eagles medium +10% foetal calf seru, 20 mM hepes pH 7.4, antibiotics, 100 μM sodium acetate containing 1 μCi/ml sodium (1-^14 C) acetate for 19 hours at 37° C. The ^14 C-acetate is metabolically incorporated into lipids and gives a "snap shot" of the lipid synthesis profile over the 19 hour time period. At the end of the incubation samples were washed in ice cold medium without ^14 C-acetate, quenched in ice cold 5% trichloroacetic acid (TCA), homogenised and centrifuged to separate insoluble residue from TCA soluble material ("TCA" fraction). The TCA fraction contains nucleo dtides, small metabolites especially succinate, amino acids, small peptides and free ^14 C-acetate. Lipids were extracted in chloroform:methanol and subject to Folch washing essentially as described by Prottey el al., Brit. J. Dermatol. (1972) 87, 586-607 generating the following fractions : "lipids", "aqueous methanol" containing only a small proportion of skin lipids with a very low ^14 C count and an extracted "solid residue". The total ^14 C count in all these fractions was determined.
The following ratio provides a measure of lipid synthesis per unit volume of skin, that is the total ^14 C-acetate uptake into lipids (i.e. amount of lipid synthesis) divided by the ^14 C-acetate uptake into the remaining tissue fractions (i.e. a measure of sample size). (Remaining tissue="TCA" fraction+"solid residue").

A further assay concerns acetyl-SCoA-carboxylase. In words: acetyl-SCoA-carboxylase activity in cultured human dermal fibroblasts (fixation of ^14 C-sodium bicarbonate into protein). Format: cell-based. As to the method: In preliminary experiments the ability of biotin sulphone to reduce the activity of acetyl-SCoa-carboxylase in an in vitro assay was assessed using cultured human dermal fibroblasts as described in Ghneim et al (1981) Biochem. Soc. Trans. 9, 405-6 and references therein. Human dermal fibroblasts were maintained in culture for 3 days with 1 μM biotin sulphone in the presence of a nutrient medium containing 10% foetal calf serum. The level of naturally occurring biotin was about 10 nM. Enzyme activity was assayed in the cell pellet by the fixation of ^14 C-sodium bicarbonate into protein in the presence of acety-CoA under appropriate conditions. Control experiments were done in the absence of biotin sulphone and enzyme activities were calculated with respect to protein.

Assay [2] relates to FFA and "Triglyceride" lipid synthesis. The assay is described as follows: in vivo topical treatment of rats, ^14 C-acetate incorporation into FFA and "triglyceride" lipid (thin layer chromatography fractions). Also noted: species or system rat. As to the method:
as §1
The radioactive lipids were fractionated into free fatty acids (FFA) monoglycerides (MG), diglycerides (trace only) and triglyerides (TG) using a standard, neutral solvent, thin layer chromatography system.
However ^14 C-acetate is also incorporated into the cholesterol synthetic pathway which should be largely unaffected by the biotin sulphone treatment. This will cause a "dilution" of the reduction seen above. Accordingly, the lipids whose synthesis is dependent on acetyl-SCoA-carboxylase have been isolated. These are free fatty acids (FFA), monoglyceride (MG), diglyeride (trace) triglyceride (TG). It is predicted that a greater reduction in the incorporation of ^14 C-acetate into "triglyceride" lipid should now be observed. As fatty acids are the primary product made by the acetyl-SCoA-carboxylase pathway in the sebaceous gland, results for this lipid class have been included separately, as well as for total "triglyceride" lipid; values of six of the rats are given in Table 3 below: […]

Where [3] appears, read: biotin sulphone treatment, rats.
The mark [4] stands for this setting: individual rats, 1 = 41,151 DPM ^14 C-acetate incorporated into lipid, corrected for sample size, topical 1 mg/ml, six weeks.

Data on one compound can be found in patent publication US4529587A, “Method of reducing sebum on the hair and skin” (Lever Brothers Company, priority 1982, dated 1985).

Several values for one entry are separate records, joined by “and”; a condition that tells them apart may be missing. Equal entries are not always repeated.

Turning to `O=C(O)CCCC[C@H]1[C@H]2NC(=O)N[C@H]2CS1(=O)=O` [biotin sulphone], the “Av. Test ratio: ^14 C-acetate uptake into lipids divided by uptake into remaining tissue” value in assay [1] (average of ten rats, control (UN or V) Av. 0.59) was determined as 0.49. Further, the “change of Av. Test ratio vs control” value in assay [1] (average, Test vs UN or V) was -18%. For the same compound, in assay [1] (individual rats A-J, 1 mg/ml in 70% ethanol:30% water, topical, twice a day, six weeks, dermis incubated 19 hours at 37° C.), the “Test ratio: ^14 C-acetate uptake into lipids divided by uptake into remaining tissue (TCA fraction + solid residue)” value is 0.43 and 0.23 and 0.59 and 0.44 and 0.52 and 0.53 and 0.58 and 0.39 and 0.73. Also, the “overall reduction in ^14 C-acetate uptake into dermal lipids” value in assay [1] (topical application, ten rats) is 18%. Also, the “nCi ^14 C-bicarbonate fixed per mg protein” value in the assay on acetyl-SCoA-carboxylase (1 μM biotin sulphone, 3 days, 10% foetal calf serum, control 4.46) is 3.26 nCi per mg protein. In the assay with acetyl-SCoA-carboxylase (1 μM biotin sulphone, 3 days, control = 100), the “Acetyl-SCoA-carboxylase activity (%)” value stood at 73%. Further, the “reduction in acetyl-SCoA-carboxylase activity” value in the assay on acetyl-SCoA-carboxylase (culture in the presence of 1 μM biotin sulphone, vs control, 4320 min) was found to be 27%. For the same compound, the “FFA synthesis, Test, Av.” value in assay [2] (average of six rats, 1 = 41,151 DPM ^14 C-acetate, control Av. 1.50) amounted to 0.91. Further, the “"Triglyceride" lipid synthesis (sum of FFA + MG + TG), Test, Av.” value in assay [2] (average of six rats, 1 = 41,151 DPM ^14 C-acetate, control Av. 18.24) is recorded as 12.94. For the same compound, in assay [2] (average, Test vs V + UN), the “change of "Triglyceride" lipid synthesis vs control” value is reported as -29% and the “change of FFA synthesis vs control” value is reported as -39%. Besides, in assay [2] (setting [3]), the “reduction of "Triglyceride" (FFA+MG+TG) synthesis” value is 29% and the “reduction of denovo FFA synthesis” value was determined as 39%. Besides, in assay [2] (setting [4]), the “"Triglyceride" lipid synthesis (sum of FFA + MG + TG), Test” value was 13.93 and 8.58 and 15.17 and 15.38 and 14.74 and 9.85; the “FFA synthesis, Test” value was 0.78 and 0.41 and 0.60 and 1.67 and 1.22.
